Data published in the NIST ThermoML archive (doi:10.1016/j.jct.2014.01.012).
Numbers after ± are expanded uncertainties.

Experiment: xn = mol fraction of the nth substance listed
Conditions: 101 kPa, Liquid; for speed of sound: Sing-around technique in a fixed-path interferometer; for mass density: Vibrating tube method

CCCCCCn1cc[n+](C)c1.F[P-](F)(F)(F)(F)F [1-hexyl-3-methylimidazolium hexafluorophosphate] + CCOC(C)=O
Conditions | mass density [kg/m3] | speed of sound [m/s]
293.15 K, x1 = 0.09053 | 985.573 ± 0.22 | 1203.8 ± 1.3
293.15 K, x1 = 0.1751 | 1047.27 ± 0.3 | 1245.1 ± 1.4
293.15 K, x1 = 0.2748 | 1103.27 ± 0.49 | 1278.6 ± 1.6
293.15 K, x1 = 0.3638 | 1142.32 ± 0.72 | 1312.1 ± 1.8
293.15 K, x1 = 0.4747 | 1181.82 ± 1.1 | 1341.9 ± 2
293.15 K, x1 = 0.5959 | 1215.82 ± 1.6 | 1369.5 ± 2.3
293.15 K, x1 = 0.6988 | 1239.42 ± 2.1 | 1390.2 ± 2.5
293.15 K, x1 = 0.7782 | 1254.92 ± 2.6 | 1404.4 ± 2.7
293.15 K, x1 = 0.8784 | 1272.57 ± 3.3 | 1417.2 ± 2.9
293.15 K, x1 = 0.9562 | 1285.17 ± 3.8 | 1428.1 ± 3.1
293.15 K, x1 = 1 | 1291.38 ± 4.2 | 1436.9 ± 3.2
298.15 K, x1 = 0.09053 | 980.708 ± 0.23 | 1182.9 ± 1.3
298.15 K, x1 = 0.1751 | 1042.71 ± 0.29 | 1226 ± 1.4
298.15 K, x1 = 0.2748 | 1098.95 ± 0.48 | 1260.9 ± 1.6
298.15 K, x1 = 0.3638 | 1138.08 ± 0.72 | 1295.7 ± 1.8
298.15 K, x1 = 0.4747 | 1177.55 ± 1.1 | 1326.9 ± 2
298.15 K, x1 = 0.5959 | 1211.68 ± 1.6 | 1355.6 ± 2.3
298.15 K, x1 = 0.6988 | 1235.47 ± 2.1 | 1376.8 ± 2.5
298.15 K, x1 = 0.7782 | 1251.3 ± 2.6 | 1388.5 ± 2.7
298.15 K, x1 = 0.8784 | 1269.1 ± 3.2 | 1402.5 ± 2.9
298.15 K, x1 = 0.9562 | 1281.27 ± 3.8 | 1414.1 ± 3.1
298.15 K, x1 = 1 | 1287.34 ± 4.1 | 1423.5 ± 3.2
303.15 K, x1 = 0.09053 | 975.56 ± 0.23 | 1162.1 ± 1.3
303.15 K, x1 = 0.1751 | 1037.99 ± 0.29 | 1207 ± 1.4
303.15 K, x1 = 0.2748 | 1094.55 ± 0.48 | 1243.1 ± 1.6
303.15 K, x1 = 0.3638 | 1133.41 ± 0.71 | 1279.1 ± 1.8
303.15 K, x1 = 0.4747 | 1173.05 ± 1.1 | 1312.1 ± 2
303.15 K, x1 = 0.5959 | 1207.51 ± 1.6 | 1341.7 ± 2.3
303.15 K, x1 = 0.6988 | 1231.55 ± 2.1 | 1363.6 ± 2.5
303.15 K, x1 = 0.7782 | 1247.62 ± 2.6 | 1375.4 ± 2.7
303.15 K, x1 = 0.8784 | 1265.46 ± 3.2 | 1388.1 ± 2.9
303.15 K, x1 = 0.9562 | 1277.49 ± 3.8 | 1402.6 ± 3.1
303.15 K, x1 = 1 | 1283.29 ± 4.1 | 1410.6 ± 3.2
308.15 K, x1 = 0.09053 | 970.46 ± 0.23 | 1141.5 ± 1.3
308.15 K, x1 = 0.1751 | 1033.19 ± 0.29 | 1188.2 ± 1.4
308.15 K, x1 = 0.2748 | 1089.85 ± 0.47 | 1225.7 ± 1.6
308.15 K, x1 = 0.3638 | 1128.89 ± 0.7 | 1261.3 ± 1.8
308.15 K, x1 = 0.4747 | 1168.92 ± 1.1 | 1297.4 ± 2
308.15 K, x1 = 0.5959 | 1203.51 ± 1.6 | 1328 ± 2.3
308.15 K, x1 = 0.6988 | 1227.75 ± 2.1 | 1350.6 ± 2.5
308.15 K, x1 = 0.7782 | 1243.95 ± 2.5 | 1365 ± 2.7
308.15 K, x1 = 0.8784 | 1261.82 ± 3.2 | 1375.1 ± 2.9
308.15 K, x1 = 0.9562 | 1273.69 ± 3.8 | 1391 ± 3.1
308.15 K, x1 = 1 | 1279.4 ± 4.1 | 1398.2 ± 3.2
313.15 K, x1 = 0.09053 | 964.46 ± 0.23 | 1120.9 ± 1.3
313.15 K, x1 = 0.1751 | 1027.59 ± 0.28 | 1169.4 ± 1.4
313.15 K, x1 = 0.2748 | 1084.79 ± 0.47 | 1208.5 ± 1.6
313.15 K, x1 = 0.3638 | 1124.28 ± 0.7 | 1246.5 ± 1.8
313.15 K, x1 = 0.4747 | 1164.75 ± 1.1 | 1282.8 ± 2
313.15 K, x1 = 0.5959 | 1199.65 ± 1.6 | 1313.8 ± 2.3
313.15 K, x1 = 0.6988 | 1224.15 ± 2.1 | 1337.7 ± 2.5
313.15 K, x1 = 0.7782 | 1240.32 ± 2.5 | 1349.8 ± 2.7
313.15 K, x1 = 0.8784 | 1258.46 ± 3.2 | 1359.6 ± 2.9
313.15 K, x1 = 0.9562 | 1270.35 ± 3.7 | 1378 ± 3.1
313.15 K, x1 = 1 | 1275.48 ± 4.1 | 1386 ± 3.2
318.15 K, x1 = 0.09053 | 960.532 ± 0.23 | 1100.5 ± 1.3
318.15 K, x1 = 0.1751 | 1023.8 ± 0.28 | 1150.8 ± 1.4
318.15 K, x1 = 0.2748 | 1080.46 ± 0.46 | 1191.3 ± 1.6
318.15 K, x1 = 0.3638 | 1119.61 ± 0.69 | 1231.9 ± 1.8
318.15 K, x1 = 0.4747 | 1160.23 ± 1.1 | 1268.4 ± 2
318.15 K, x1 = 0.5959 | 1195.59 ± 1.6 | 1300.3 ± 2.3
318.15 K, x1 = 0.6988 | 1220.56 ± 2.1 | 1324.8 ± 2.5
318.15 K, x1 = 0.7782 | 1236.86 ± 2.5 | 1337.1 ± 2.7
318.15 K, x1 = 0.8784 | 1254.52 ± 3.2 | 1348.4 ± 2.9
318.15 K, x1 = 0.9562 | 1266.02 ± 3.7 | 1366 ± 3.1
318.15 K, x1 = 1 | 1271.56 ± 4 | 1374.2 ± 3.2
323.15 K, x1 = 0.09053 | 955.246 ± 0.24 | 1080.2 ± 1.3
323.15 K, x1 = 0.1751 | 1018.76 ± 0.28 | 1132.3 ± 1.4
323.15 K, x1 = 0.2748 | 1075.54 ± 0.46 | 1174.3 ± 1.6
323.15 K, x1 = 0.3638 | 1114.9 ± 0.68 | 1216.3 ± 1.8
323.15 K, x1 = 0.4747 | 1155.92 ± 1 | 1254.2 ± 2
323.15 K, x1 = 0.5959 | 1191.86 ± 1.5 | 1287.2 ± 2.3
323.15 K, x1 = 0.6988 | 1217.05 ± 2.1 | 1311.7 ± 2.5
323.15 K, x1 = 0.7782 | 1233.69 ± 2.5 | 1324.4 ± 2.7
323.15 K, x1 = 0.8784 | 1251.25 ± 3.1 | 1335.4 ± 2.9
323.15 K, x1 = 0.9562 | 1262.25 ± 3.7 | 1355.1 ± 3.1
323.15 K, x1 = 1 | 1267.63 ± 4 | 1362.5 ± 3.2
